According to the OligoGym collection:
HELM strings list units from the 5' end as sugar, base in round brackets, then linkage (d deoxyribose, r ribose, m 2'-O-methyl, p phosphodiester). [sp] = phosphorothioate linkage

Legend:
CTNNB1 [1] = assay: HEK293-TLR8, 100 nM ASO, then resiquimod
CTNNB1 [2] = assay: HEK293-TLR7, 100 nM ASO, then resiquimod

| Substance | TLR8 potentiation (NF-kB luciferase) (fold of resiquimod alone) (CTNNB1 [1]) | TLR7 signal (NF-kB luciferase) (% of resiquimod alone) (CTNNB1 [2]) |
| --- | --- | --- |
| RNA1{m(U)[sp].m(U)[sp].m(A)[sp].m(U)[sp].m(U)[sp].d(T)[sp].d(T)[sp].d(A)[sp].d(A)[sp].d(G)[sp].d(C)[sp].d(A)[sp].d(T)[sp].d(A)[sp].d(T)[sp].m(U)[sp].m(A)[sp].m(A)[sp].m(A)[sp].m(A)}$$$$ | 2.97 | 41.5 |
| RNA1{m(U)[sp].m(U)[sp].m(C)[sp].m(A)[sp].m(A)[sp].d(T)[sp].d(G)[sp].d(G)[sp].d(G)[sp].d(A)[sp].d(G)[sp].d(A)[sp].d(A)[sp].d(T)[sp].d(A)[sp].m(A)[sp].m(A)[sp].m(G)[sp].m(C)[sp].m(A)}$$$$ | 3.03 | 32.9 |
| RNA1{m(U)[sp].m(U)[sp].m(C)[sp].m(U)[sp].m(G)[sp].d(C)[sp].d(A)[sp].d(G)[sp].d(C)[sp].d(T)[sp].d(T)[sp].d(C)[sp].d(C)[sp].d(T)[sp].d(T)[sp].m(G)[sp].m(U)[sp].m(C)[sp].m(C)[sp].m(U)}$$$$ | 4.06 | 42.7 |
| RNA1{m(U)[sp].m(U)[sp].m(U)[sp].m(A)[sp].m(U)[sp].d(T)[sp].d(C)[sp].d(A)[sp].d(G)[sp].d(A)[sp].d(T)[sp].d(T)[sp].d(A)[sp].d(C)[sp].d(A)[sp].m(A)[sp].m(U)[sp].m(U)[sp].m(A)[sp].m(A)}$$$$ | 3.68 | 53.4 |
| RNA1{m(U)[sp].m(U)[sp].m(U)[sp].m(U)[sp].m(A)[sp].d(A)[sp].d(G)[sp].d(C)[sp].d(A)[sp].d(T)[sp].d(A)[sp].d(T)[sp].d(T)[sp].d(A)[sp].d(A)[sp].m(A)[sp].m(A)[sp].m(A)[sp].m(G)[sp].m(G)}$$$$ | 3.67 | 59.4 |
